Key:
Format in all cases: cell-based
[1] = target: T1, FGFR2 V564F (Homo sapiens, UniProt P21802, V564F); test: Cell proliferation assay for Tel-FGFR2 V564F in BaF3; conditions: BaF3 cells expressing FGFR2 V564F fusion, 48 hrs, CellTiter Glo
T1 construct: P41212 (Transcription factor ETV6)
Method: (§1) By transfection, cell strains of the intracellular kinase domain fusion protein of TEL-FGFR2 WT or the intracellular domain fusion proteins containing FGFR2 V564, V564F, V564L, N549K and K659M mutations were stably expressed in Baf cells. On day 1, the cell suspension was plated into a 96-well plate containing growth medium (DMEM containing 1% Glutamax, 10% FBS and 1% Pen/Strep) at 2000-4000 cells/90 μL/per well, and then the mixture was incubated overnight at 37° C. and 5% CO2. On day 2, 10 μL of growth medium containing a 10-fold stock solution of test compound was added to the cell culture (9 dose points, 3× serial dilution, starting from 1 μM, finally 0.3% DMSO). After incubation at 37° C. and 5% CO2 for 48 hrs, 50 μL of CellTiter Glo (CTG) reagent was added to the cell-containing 96-well plate on day 3, and the plate was then incubated at room temperature for 10 min. Then relative light units (RLUs) were measured on a microplate reader with a luminescence detection module. RLU values were normalized to % survival, and concentration-response curves were plotted using Prism to calculate IC50 (nM).

[2] = target: T2, FGFR2 V564L (Homo sapiens, UniProt P21802, V564L); test: Cell proliferation assay for Tel-FGFR2 V564L in BaF3; conditions: BaF3 cells expressing FGFR2 V564L fusion, 48 hrs, CellTiter Glo
T2 construct: P41212 (Transcription factor ETV6)
T2 sequence (P21802 481-770 V564L limits assumed): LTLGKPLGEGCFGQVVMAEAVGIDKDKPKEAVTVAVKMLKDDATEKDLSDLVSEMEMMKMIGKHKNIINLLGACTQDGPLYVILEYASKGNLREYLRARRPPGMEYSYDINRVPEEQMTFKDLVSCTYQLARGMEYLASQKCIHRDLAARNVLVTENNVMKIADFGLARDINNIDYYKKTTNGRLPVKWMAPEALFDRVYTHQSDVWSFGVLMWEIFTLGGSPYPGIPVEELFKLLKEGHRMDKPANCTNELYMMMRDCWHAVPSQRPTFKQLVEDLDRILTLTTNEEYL
Method: as §1

[3] = target: T3, FGFR2 V564I (Homo sapiens, UniProt P21802, V564I); test: Cell proliferation assay for Tel-FGFR2 V564I in BaF3; conditions: BaF3 cells expressing FGFR2 V564I fusion, 48 hrs, CellTiter Glo
T3 construct: P41212 (Transcription factor ETV6)
T3 sequence (P21802 481-770 V564I limits assumed): as the sequence (P21802 481-770 V564L limits assumed) above, with L84I counted along it
Method: as §1

[4] = target: T4, FGFR2 N549K (Homo sapiens, UniProt P21802, N549K); test: Cell proliferation assay for Tel-FGFR2 N549K in BaF3; conditions: BaF3 cells expressing FGFR2 N549K fusion, 48 hrs, CellTiter Glo
T4 construct: P41212 (Transcription factor ETV6)
T4 sequence (P21802 481-770 N549K limits assumed): as the sequence (P21802 481-770 V564L limits assumed) above, with N69K, L84V counted along it
Method: as §1

[5] = target: T5, FGFR2 K659M (Homo sapiens, UniProt P21802, K659M); test: Cell proliferation assay for Tel-FGFR2 K659M in BaF3; conditions: BaF3 cells expressing FGFR2 K659M fusion, 48 hrs, CellTiter Glo
T5 construct: P41212 (Transcription factor ETV6)
T5 sequence (P21802 481-770 K659M limits assumed): as the sequence (P21802 481-770 V564L limits assumed) above, with L84V, K179M counted along it
Method: as §1

[6] = target: T6, FGFR3 V555M (Homo sapiens, UniProt P22607, V555M); test: Cell proliferation assay for FGFR3 V555M in BaF3; conditions: BaF3 cells expressing FGFR3 V555M fusion, 48 hrs, CellTiter Glo
T6 construct: P41212 (Transcription factor ETV6)
T6 sequence (P22607 472-761 V555M limits assumed): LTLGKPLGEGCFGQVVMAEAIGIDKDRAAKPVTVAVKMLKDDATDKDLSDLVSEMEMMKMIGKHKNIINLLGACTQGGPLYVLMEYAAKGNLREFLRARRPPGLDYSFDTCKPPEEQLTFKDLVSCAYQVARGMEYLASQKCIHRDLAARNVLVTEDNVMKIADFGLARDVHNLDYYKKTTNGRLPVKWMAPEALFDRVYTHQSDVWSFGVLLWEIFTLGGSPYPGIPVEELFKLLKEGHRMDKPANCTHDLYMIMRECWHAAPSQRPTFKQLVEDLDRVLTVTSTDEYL
Method: (§2) For the compounds of the Examples of the present invention, cell strains of TEL-FGFR3 WT intracellular kinase domain fusion protein or intracellular domain fusion protein containing FGFR3 V555M or FGFR3 N540K mutation were stably expressed in Baf cells by transfection and were used to determine the cell proliferation effect of BaF3-Tel-FGFR3 WT. FGFR3 V555M or FGFR3 N540K. The specific test process was as follows: • 1) The cell suspension was plated into a 96-well plate containing growth medium (DMEM containing 1% Glutamax, 10% FBS and 1% Pen/Strep) at 2000-4000 cells/90 μL/per well, and then the mixture was incubated overnight at 37° C. and 5% CO2. • 2) 10 μL of growth medium containing a 10-fold stock solution of test compound was added to the cell culture (9 dose points, 3× serial dilution, starting from 1 μM, finally 0.3% DMSO). • 3) The mixture was incubated at 37° C. and 5% CO2 for 48 hrs. • 4) 50 μL of CellTiter Glo (CTG) reagent was added to the cell-containing 96-well plate, and the plate was then incubated at room temperature for 10 min. • 5) Relative light units (RLUs) were measured on a microplate reader with a luminescence detection module. RLU values were normalized to % survival, and concentration-response curves were plotted using Prism to calculate IC50 (nM).

[7] = target: T7, FGFR3 N540K (Homo sapiens, UniProt P22607, N540K); test: Cell proliferation assay for FGFR3 N540K in BaF3; conditions: BaF3 cells expressing FGFR3 N540K fusion, 48 hrs, CellTiter Glo
T7 construct: P41212 (Transcription factor ETV6)
T7 sequence (P22607 472-761 N540K limits assumed): as the sequence (P22607 472-761 V555M limits assumed) above, with N69K, M84V counted along it
Method: as §2

T1 sequence (P21802 481-770 V564F limits assumed): as the sequence (P21802 481-770 V564L limits assumed) above, with L84F counted along it

Row | SMILES | IC50 [1] | IC50 [2] | IC50 [3] | IC50 [4] | IC50 [5] | IC50 [6] | IC50 [7]
1 | C=CC(=O)N1CC[C@H](n2nc(C#Cc3c(F)cc4sc(C5CC5)nc4c3F)c3c(N)ncnc32)C1 [Example 62, (S)-1-(3-(4-amino-3-((2-cyclopropyl-4,6-difluoro-benzo[d]thiazol-5-yl)ethynyl)-1H-pyrazolo[3,4-d]pyrimidin-1-yl)pyrrolidin-1-yl) prop-2-en-1-one] | ≤ 0.5 nM | 0.5 to 5 nM | ≤ 0.5 nM | 0.5 to 5 nM | 5 to 50 nM | 0.5 to 5 nM | 0.5 to 5 nM
2 | C=CC(=O)N1CC[C@H](n2nc(C#Cc3ccc4oc(C5CC5)nc4c3)c3c(N)ncnc32)C1 [Example 20, (S)-1-(3-(4-amino-3-((2-cyclopropylbenzo[d]oxazol-5-yl)ethynyl)-1H-pyrazolo [3,4-d]pyrimidin-1-yl)pyrrolidin-1-yl)prop-2-en-1-one] | 0.5 to 5 nM | 0.5 to 5 nM | ≤ 0.5 nM | 0.5 to 5 nM | 5 to 50 nM | 0.5 to 5 nM | 0.5 to 5 nM
3 | C=CC(=O)N1C[C@@H](n2nc(C#Cc3c(F)cc4sc(N5CCC5)nc4c3F)c3c(N)ncnc32)C[C@@H]1COC [Example 69, 1-((2R,4S)-4-(4-amino-3-((2-(azetidin-1-yl)-4,6-difluorobenzo[d]thiazol-5-yl)ethynyl)-1H-pyrazolo[3,4-d]pyrimidin-1-yl)-2-(methoxy-methyl)pyrrolidin-1-yl)prop-2-en-1-one] | ≤ 0.5 nM | 0.5 to 5 nM |  | 0.5 to 5 nM | 5 to 50 nM | ≤ 0.5 nM | 
4 | C=CC(=O)N1CC[C@H](n2nc(C#Cc3c(F)cc4oc(N5CCC5)nc4c3F)c3c(N)ncnc32)C1 [Example 74, (S)-1-(3-(4-amino-3-((2-(azetidin-1-yl)-4.6-difluoro-benzo[d]oxazol-5-yl)ethynyl)-1H-pyrazolo[3,4-d]pyrimidin-1-yl)pyrrolidin-1-yl)prop-2-en-1-one] | ≤ 0.5 nM | 0.5 to 5 nM | ≤ 0.5 nM | 0.5 to 5 nM | 5 to 50 nM | ≤ 0.5 nM | 0.5 to 5 nM
5 | C=CC(=O)N1CC[C@H](n2cc(C#Cc3c(F)cc4sc(C)nc4c3F)c3c(N)ncnc32)C1 [Example 75, (S)-1-(3-(4-amino-5-((4,6-difluoro-2-methylbenzo[d]thiazol-5-yl)ethynyl)-7H-pyrrolo[2,3-d]pyrimidin-7-yl)pyrrolidin-1-yl)prop-2-en-1-one] | 0.5 to 5 nM |  | ≤ 0.5 nM |  | 0.5 to 5 nM | 0.5 to 5 nM | 
6 | C=CC(=O)N1CC[C@H](n2nc(C#Cc3cc4nc(C5CC5)sc4cc3F)c3c(N)ncnc32)C1 [Example 59, (S)-1-(3-(4-amino-3-((2-cyclopropyl-6-fluorobenzo [d]thiazol-5-yl)ethynyl)-1H-pyrazolo[3,4-d]pyrimidin-1-yl)pyrrolidin-1-yl) prop-2-en-1-one] | 0.5 to 5 nM | 0.5 to 5 nM | ≤ 0.5 nM | 0.5 to 5 nM |  | 0.5 to 5 nM | 
7 | C=CC(=O)N1CC[C@H](n2nc(C#Cc3cc4nc(C)sc4cc3F)c3c(N)ncnc32)C1 [Example 57, (S)-1-(3-(4-amino-3-((6-fluoro-2-methylbenzo[d]thiazol-5-yl)ethynyl)-1H-pyrazolo[3,4-d]pyrimidin-1-yl)pyrrolidin-1-yl)prop-2-en-1-one] | ≤ 0.5 nM | 0.5 to 5 nM | ≤ 0.5 nM | 0.5 to 5 nM |  | 5 to 50 nM | 
8 | C=CC(=O)N1C[C@@H](n2nc(C#Cc3c(F)cc4sc(C5CC5)nc4c3F)c3c(N)ncnc32)C[C@@H]1COC [Example 68, 1-((2R,4S)-4-(4-amino-3-((2-cyclopropyl-4,6-difluoro-benzo[d]thiazol-5-yl)ethynyl)-1H-pyrazolo[3,4-d]pyrimidin-1-yl)-2-(methoxy-methyl)pyrrolidin-1-yl) prop-2-en-1-one] | ≤ 0.5 nM | ≤ 0.5 nM |  | ≤ 0.5 nM | 0.5 to 5 nM | ≤ 0.5 nM | 0.5 to 5 nM
9 | C=CC(=O)N1CC[C@H](n2cc(C#Cc3cc4nc(C5CC5)sc4cc3F)c3c(N)ncnc32)C1 [Example 48, (S)-1-(3-(4-amino-5-((2-cyclopropyl-6-fluorobenzo [d]thiazol-5-yl)ethynyl)-7H-pyrrolo[2,3-d]pyrimidin-7-yl)pyrrolidin-1-yl)prop-2-en-1-one] | 0.5 to 5 nM | 0.5 to 5 nM | ≤ 0.5 nM | 0.5 to 5 nM |  | 0.5 to 5 nM | 
10 | C=CC(=O)N1CC[C@H](n2nc(C#Cc3c(F)cc4oc(NC)nc4c3F)c3c(N)ncnc32)C1 [Example 67, (S)-1-(3-(4-amino-3-((4,6-difluoro-2-(methylamino)benzo[d]oxazol-5-yl)ethynyl)-1H-pyrazolo[3,4-d]pyrimidin-1-yl)pyrrolidin-1-yl)prop-2-en-1-one] | 0.5 to 5 nM |  |  |  |  | 0.5 to 5 nM | 5 to 50 nM
11 | C=CC(=O)N1CC[C@H](n2nc(C#Cc3cc4nc(C5(F)CC5)oc4cc3F)c3c(N)ncnc32)C1 [Example 36] | ≤ 0.5 nM |  | ≤ 0.5 nM |  | 0.5 to 5 nM | 0.5 to 5 nM | 
12 | C=CC(=O)N1CC[C@H](n2nc(C#Cc3ccc4sc(CC)nc4c3)c3c(N)ncnc32)C1 [Example 53, (S)-1-(3-(4-amino-3-((2-ethylbenzo[d]thiazol-5-yl)ethynyl)-1H-pyrazolo[3,4-d]pyrimidin-1-yl)pyrrolidin-1-yl)prop-2-en-1-one] | 0.5 to 5 nM | 0.5 to 5 nM | ≤ 0.5 nM | 0.5 to 5 nM |  | 5 to 50 nM | 
13 | C=CC(=O)N1CC[C@H](n2cc(C#Cc3ccc4sc(CC)nc4c3)c3c(N)ncnc32)C1 [Example 44, (S)-1-(3-(4-amino-5-((2-ethylbenzo[d]thiazol-5-yl)ethynyl)-7H-pyrrolo[2,3-d]pyrimidin-7-yl)pyrrolidin-1-yl)prop-2-en-1-one] | 0.5 to 5 nM | 0.5 to 5 nM | ≤ 0.5 nM | 0.5 to 5 nM |  | 5 to 50 nM | 
14 | C=CC(=O)N1CC[C@H](n2cc(C#Cc3ccc4sc(C)nc4c3)c3c(N)ncnc32)C1 [Example 42, (S)-1-(3-(4-amino-5-((2-methylbenzo[d]thiazol-5-yl)ethynyl)-7H-pyrrolo[2,3-d]pyrimidin-7-yl)pyrrolidin-1-yl)prop-2-en-1-one] | ≤ 0.5 nM | 0.5 to 5 nM |  | 0.5 to 5 nM | 5 to 50 nM | 5 to 50 nM | 
15 | CN(C)C/C=C/C(=O)N1CC(n2nc(C#Cc3c(F)cc4oc(N5CCC5)nc4c3F)c3c(N)ncnc32)C1 [Example 77, (E)-1-(3-(4-amino-3-((2-(azetidin-1-yl)-4,6-difluorobenzo[d]oxazol-5-yl)ethynyl)-1H-pyrazolo[3,4-d]pyrimidin-1-yl)azetidin-1-yl)-4-(dimethylamino)but-2-en-1-one] | ≤ 0.5 nM | 0.5 to 5 nM |  | 0.5 to 5 nM | 5 to 50 nM | 0.5 to 5 nM | 5 to 50 nM
16 | CN(C)C/C=C/C(=O)N1CC(n2nc(C#Cc3c(F)cc4sc(C5CC5)nc4c3F)c3c(N)ncnc32)C1 [Example 78, (E)-1-(3-(4-amino-3-((2-cyclopropyl-4,6-difluoro-benzo[d]thiazol-5-yl)ethynyl)-1H-pyrazolo[3,4-d]pyrimidin-1-yl)azetidin-1-yl)-4-(dimethylamino)but-2-en-1-one] | ≤ 0.5 nM | 0.5 to 5 nM |  | 0.5 to 5 nM | 5 to 50 nM | ≤ 0.5 nM | 5 to 50 nM
